Measurements from PubChem BioAssay AID2649 (Southern Research Specialized Biocontainment Screening …, 2010).
The source made the active and inactive calls.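 Rule for the calls: active = lowest viability as percent of untreated cell control, measured with 5% serum, under 70% cytotoxic; inactive = the rest.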

What was measured:
[1] = tested on: MAGI-CCR5 HeLa cells viability, MTS, 10% serum; test: cytotoxicity in MAGI-CCR5 cells, SAR follow-up, cytotoxicity control for HIV-1 antiviral lead project, cell-based, MTS, 5% and 10% serum (AID 2649)
[2] = tested on: MAGI-CCR5 HeLa cells viability, MTS, 5% serum; test: as above

Compound | CC50 [1] [µM] | CC50 [2]
COc1cc(/C=N/NS(=O)(=O)c2ccc3ccccc3c2)ccc1OCc1ccc(C(=O)O)cc1 | > 100 | > 100 µM (inactive)
CCOC(=O)C1=C(C)N=c2sc(=Cc3ccc(OCC(=O)O)cc3)c(=O)n2C1c1ccc(OC(C)C)cc1 (stereo not drawn) | > 100 | –
N#C/C(=C\c1ccc(OCc2ccc(Cl)cc2)cc1)C(=O)Nc1cccc(C(=O)O)c1 | > 100 | > 100 µM (inactive)
COc1cc(/C=C2\SC(=O)N(c3ccccc3Cl)C2=O)cc([N+](=O)[O-])c1O | > 100 | –
Cc1c2c(=O)n(-c3nc4ccccc4s3)nc-2cc(O)n1Cc1ccccc1 | > 100 | > 100 µM (inactive)
CSc1nnc(-c2ccccc2N=Cc2c(C)[nH]n(-c3ccc4ccccc4c3)c2=O)c(=O)[nH]1 | > 100 | > 100 µM (inactive)
CCC(Sc1nc2ccsc2c(=O)n1Cc1ccc(C(=O)O)cc1)C(=O)Nc1ccc(C)c(Cl)c1 (stereo not drawn) | > 100 | > 100 µM (inactive)
O=C(O)c1ccccc1N=Nc1c(O)[nH]c2ccc([N+](=O)[O-])cc12 | > 100 | > 100 µM (inactive)
CCC(C)(C)C1CCc2c(sc(NC(=O)c3ccccc3C(=O)O)c2C#N)C1 (stereo not drawn) | > 100 | –
Cc1c(Cl)cccc1NS(=O)(=O)c1ccc2c(c1)C1C=CCC1C(c1ccc(C(=O)O)cc1)N2 (stereo not drawn) | > 100 | 71.7 µM
O=C(N/N=C/c1c(O)n(C2CCCCC2)c(=S)[nH]c1=O)c1ccccc1O | > 100 | > 100 µM (inactive)
CCOC(=O)c1sc(N2C(=O)C(O)=C(C(=O)c3ccc(C)o3)C2c2cccc([N+](=O)[O-])c2)nc1C (stereo not drawn) | > 100 | > 100 µM (inactive)
CC(C)(C)c1cc(-c2csc(Nc3ccccc3)[n+]2Cc2ccc(C(=O)O)cc2)cc(C(C)(C)C)c1O | 62.4 | 54.9 µM
O=C1NC(=S)N(c2ccc(F)cc2)C(=O)/C1=C\c1ccoc1 | > 100 | –
CCOc1cc(/C=C2\SC(=O)N(CC(=O)Nc3ccccc3F)C2=O)cc([N+](=O)[O-])c1O | > 100 | > 100 µM (inactive)
Oc1c(Cl)cc(Cl)c(Cl)c1Cc1c(O)c(Cl)cc(Cl)c1Cl | > 100 | 56.5 µM
O=[N+]([O-])c1cc([N+](=O)[O-])c2oc(-c3ccccc3)c(Br)c2c1O | > 100 | 38.7 µM
O=C(O)CCCN1C(=O)/C(=C/c2ccc(-c3nc4ccccc4s3)o2)SC1=S | > 100 | > 100 µM (inactive)
CC(C)NC(=O)c1sc(=S)n2c1[nH]c(=O)c1ccc(C(=O)NCCc3ccc(Cl)cc3)cc12 | > 100 | > 100 µM (inactive)
COC(=O)c1sc(-c2ccc(C(C)(C)C)cc2)cc1NC(=O)c1ccccc1C(=O)O | > 100 | 88.7 µM
N#C/C(=C\c1ccc(O)c([N+](=O)[O-])c1)c1nc2ccccc2s1 | > 100 | > 100 µM (inactive)
